Data on three molecules can be found in patent publication US20110040086A1, “Novel Beta-Lactam Antibiotics, Methods for Their Production, and Their Use” (DRITTE PATENTPORTFOLIO BETEILIGUNGSGESELLSCHAFT MB, priority 2007, published 2011).

The test system of series [1] is B. subtilis AWD 166. The series is described as follows: agar diffusion test (antimicrobial effect). Format: cell-based, Bacillus subtilis. The essentials: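 Nutrient agar seeded with B. subtilis AWD 166 to give dense non-confluent colonies; compounds in methanol or distilled water applied to discs at 10, 50, 100 μg. After 20 h at 37 °C, inhibition zone diameter measured in mm.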
On the technique in general: In agar diffusion tests the substance spreads into inoculated agar from a disc or well.

The subject of series [2] is Enterococcus faecalis 769. Put plainly: agar diffusion test (Test System II, multi-resistant germs). The format is cell-based. The arrangement: key: r = resistant (no detectable zone of inhibition). The essentials:
(§1)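 Zone diameters around compound-loaded discs serve as the activity measure. Plates of Müller-Hinton agar II receive a three-layer coating of McFarland 0.5 suspension and three discs containing 10, 50 or 100 μg, then stand 18-20 h at 37 °C.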

Series [3] has as its system E. faecalis 945. The description is as above. Format: cell-based, Enterococcus faecalis. The arrangement: key: r = resistant (no detectable zone of inhibition). A digest of the protocol:
as §1

For series [4], the system named is S. epidermidis 1068. The series is described as above. Format: cell-based, Staphylococcus epidermidis. The arrangement: key: r = resistant (no detectable zone of inhibition). A digest of the protocol:
as §1

Series [5] relates to S. epidermidis 1071. The description is as above. Format: cell-based, Staphylococcus epidermidis. The arrangement: key: r = resistant (no detectable zone of inhibition). The essentials:
as §1

Series [6] relates to S. epidermidis 563. Described as above. The format is cell-based, Staphylococcus epidermidis. The arrangement: key: r = resistant (no detectable zone of inhibition). The essentials:
as §1

The subject of series [7] is S. epidermidis 847. The series is described as above. The arrangement: key: r = resistant (no detectable zone of inhibition). Format: cell-based, Staphylococcus epidermidis. A digest of the protocol: as §1
Series [8] is described as follows: logP value by HPLC according to Donovan et al. Conditions: HPLC, methanol/0.1% phosphoric acid pH 2. The essentials: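 Reversed-phase HPLC at 18-24° C with a methanol/0.1% phosphoric acid pH 2 gradient, 10% to 100% methanol over 9.4 min, 1.5 mL/min. Analyte co-injected with methyl phenyl sulfonate and toluene standards. logP derived from analyte/standard retention-time relationships.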

As for `O=C(O)C1=C(Cl)CSC2C(NC(=O)C(NC3=C(C(=O)NCCO)C(=O)C=CC3=O)c3ccccc3)C(=O)N12` (stereo not shown) [1i, 3-chlorine-7-{2-[2-(2-hydroxyethylcarbamoyl)-3,6-dioxocyclohexa-1,4-dienylamino]-2-phenyl-acetylamino}-8-oxo-1-thia-5-azabicyclo[4.2.0]oct-3-en-4-carboxylic acid], the “Diameter of zone of inhibition” value in series [1] (Quantity n 0.029) is recorded as 30 mm; in series [1] (Quantity n 0.14), 36 mm; in series [1] (Quantity n 0.29), 38 mm; in series [2] (Quantity n 0.029), “r”; in series [2] (Quantity n 0.14), “r”; in series [2] (Quantity n 0.29), “r”. In addition, the “Diameter of zone of inhibition” value in series [3] (Quantity n 0.029) is “r”; in series [3] (Quantity n 0.14), “r”; in series [3] (Quantity n 0.29) it was “r”; in series [4] (Quantity n 0.029), 12 mm; in series [4] (Quantity n 0.14), 18 mm; in series [4] (Quantity n 0.29) it was 22 mm. Besides, the “Diameter of zone of inhibition” value in series [5] (Quantity n 0.029) was found to be 14 mm; in series [5] (Quantity n 0.14), 22 mm; in series [5] (Quantity n 0.29), 26 mm; in series [6] (Quantity n 0.029), 12 mm; in series [6] (Quantity n 0.14) it was 22 mm; in series [6] (Quantity n 0.29), 24 mm. The figures for the “Diameter of zone of inhibition” value in series [7] (Quantity n [mol] 0.029), in series [7] (Quantity n [mol] 0.14) and in series [7] (Quantity n [mol] 0.29) were 12 mm, 20 mm and 24 mm, respectively. This molecule registered a logP value in series [8] of 1.81.

With `NC(=O)C1=C(NC(C(=O)NC2C(=O)N3C(C(=O)O)=C(Cl)CSC23)c2ccccc2)C(=O)C=CC1=O` (stereo not shown) [1j, 3-chlorine-7-[2-(2-carbamoyl-3,6-dioxocyclohexa-1,4-dienylamino)-2-phenyl-acetylamino]-8-oxo-1-thia-5-azabicyclo[4.2.0]oct-3-en-4-carboxylic acid], the “Diameter of zone of inhibition” value in series [1] (Quantity n 0.02) was 30 mm; in series [1] (Quantity n 0.1) it was 38 mm; in series [1] (Quantity n 0.2), 40 mm; in series [2] (Quantity n 0.02), “r”; in series [2] (Quantity n 0.1), 8 mm; in series [2] (Quantity n 0.2), 12 mm. Moreover, the “Diameter of zone of inhibition” value in series [3] (Quantity n 0.02) is listed as “r”; in series [3] (Quantity n 0.1), “r”; in series [3] (Quantity n 0.2) it was “r”; in series [4] (Quantity n 0.02), 16 mm; in series [4] (Quantity n 0.1), 22 mm; in series [4] (Quantity n 0.2), 26 mm. In addition, the “Diameter of zone of inhibition” value in series [5] (Quantity n 0.02) turned out to be 18 mm; in series [5] (Quantity n 0.1), 26 mm; in series [5] (Quantity n 0.2), 28 mm; in series [6] (Quantity n 0.02), 20 mm; in series [6] (Quantity n 0.1) it was 26 mm; in series [6] (Quantity n 0.2), 32 mm. The entries for the “Diameter of zone of inhibition” value in series [7] (Quantity n [mol] 0.02), in series [7] (Quantity n [mol] 0.1) and in series [7] (Quantity n [mol] 0.2) were 10 mm, 20 mm and 24 mm, respectively.

`CCOC(=O)C1=C(NC(C(=O)NC2C(=O)N3C(C(=O)O)=C(Cl)CSC23)c2ccccc2)C(=O)C=CC1=O` (stereo not shown) [1l]: the “Diameter of zone of inhibition” value in series [1] (Quantity n 0.019) is recorded as 30 mm; in series [1] (Quantity n 0.09), 34 mm; in series [1] (Quantity n 0.19), 38 mm; in series [2] (Quantity n 0.019), “r”; in series [2] (Quantity n 0.09), “r”; in series [2] (Quantity n 0.19), “r”. The “Diameter of zone of inhibition” value in series [3] (Quantity n 0.019) is listed as “r”; in series [3] (Quantity n 0.09) it was “r”; in series [3] (Quantity n 0.19) it was “r”; in series [4] (Quantity n 0.019), 14 mm; in series [4] (Quantity n 0.09) it was 20 mm; in series [4] (Quantity n 0.19), 22 mm. In addition, the “Diameter of zone of inhibition” value in series [5] (Quantity n 0.019) is 16 mm; in series [5] (Quantity n 0.09), 24 mm; in series [5] (Quantity n 0.19) it was 28 mm; in series [6] (Quantity n 0.019) it was 16 mm; in series [6] (Quantity n 0.09), 28 mm; in series [6] (Quantity n 0.19) it was 30 mm. Moreover, the “Diameter of zone of inhibition” value is given as “r” in series [7] (Quantity n [mol] 0.019), 20 mm in series [7] (Quantity n [mol] 0.09) and 22 mm in series [7] (Quantity n [mol] 0.19).
